From patent US20160113921A1, “COMBINATION THERAPY COMPRISING OXAZOLIDINONE-QUINOLONES FOR USE IN TREATING BACTERIAL INFECTIONS” (MORPHOCHEM AKTIENGESELLSCHAFT FÜR KOMBINATORISCHE CHEMIE, priority 2013, published 2016)
≈ marks a conversion by molar mass, not a printed value. Read-outs that look alike come from different tables or passages of the source.

What was measured:
Format in all cases: cell-based
[1] = test system: E. coli ATCC 25922; assay: MIC, broth microdilution (CLSI), CAMHB; settings: Escherichia coli
Experimental: (§1) MIC-testing was done immediately after preparation of the dilutions. All tests were done in duplicate and repeated once on a separate occasion.
(§2) 1 mL of the bacterial suspension was transferred into a tube containing 10 mL CAMHB and was vortexed thoroughly. (S. pneumoniae 1 mL in 10 mL CAMHB+5% lysed horse blood). Columns 1-15 of the 96-well plate were inoculated with 5 μL of this suspension (1-15=antibacterial solution, 16=sterile medium without test item).
(§3) Turbidity was read visually with a mirror.

[2] = test system: E. coli GNS-2601 (ESBL CTX-M-15); assay: MIC, broth microdilution (CLSI), CAMHB; settings: Escherichia coli
Experimental: as §1, §2, §3

[3] = test system: E. coli NRZ-00302 (metallo β-lactamase NDM-1); assay: MIC, broth microdilution (CLSI), CAMHB; settings: Escherichia coli
Experimental: as §1, §2, §3

[4] = test system: E. coli NRZ-00401 (metallo β-lactamase VIM-1); assay: MIC, broth microdilution (CLSI), CAMHB; settings: Escherichia coli
Experimental: as §1, §2, §3

[5] = test system: E. coli ATCC 25922; assay: Time-kill curves; settings: E. coli ATCC25922; for growth- and kill rates k ('+' = growth, unmarked = kill rate): first four hours
[6] = test system: E. coli NRZ-00401; assay: Time-kill curves; settings: E. coli NRZ00401; for growth- and kill rates k ('+' = growth, unmarked = kill rate): first four hours
[7] = test system: E. coli NRZ-00302; assay: Time-kill curves; settings: E. coli NRZ00302; for growth- and kill rates k ('+' = growth, unmarked = kill rate): first four hours
[8] = test system: E. coli GNS-2601; assay: Time-kill curves; settings: E. coli GNS2601; for growth- and kill rates k ('+' = growth, unmarked = kill rate): first four hours
[9] = test system: E. coli ATCC 25922, NRZ-00401, NRZ-00302 and GNS-2601; assay: Time-kill curves, statements on the four E. coli strains
[10] = test system: E. cloacae ATCC 13047; assay: MIC, broth microdilution (CLSI), CAMHB; settings: Enterobacter cloacae, ATCC13047
Experimental: as §1, §2, §3

[11] = test system: E. cloacae NRZ-00239 (VIM-1); assay: MIC, broth microdilution (CLSI), CAMHB; settings: Enterobacter cloacae
Experimental: as §1, §2, §3

[12] = test system: E. faecalis ATCC 29212; assay: MIC, broth microdilution (CLSI), CAMHB; settings: Enterococcus faecalis, ATCC29212
Experimental: as §1, §2, §3

[13] = test system: E. faecalis V583 (VanB); assay: MIC, broth microdilution (CLSI), CAMHB; settings: Enterococcus faecalis
Experimental: as §1, §2, §3

[14] = test system: E. faecium DSMZ 2146; assay: MIC, broth microdilution (CLSI), CAMHB; settings: Enterococcus faecium, DSMZ2146
Experimental: as §1, §2, §3

[15] = test system: E. faecium UW 3695 (linezolid and quinolone-resistant); assay: MIC, broth microdilution (CLSI), CAMHB; settings: Enterococcus faecium
Experimental: as §1, §2, §3

[16] = test system: K. pneumoniae ATCC 13883; assay: MIC, broth microdilution (CLSI), CAMHB; settings: Klebsiella pneumoniae, ATCC13883
Experimental: as §1, §2, §3

[17] = test system: K. pneumoniae NRZ-00002 (OXA-48); assay: MIC, broth microdilution (CLSI), CAMHB; settings: Klebsiella pneumoniae
Experimental: as §1, §2, §3

[18] = test system: K. pneumoniae NRZ-00103 (KPC-2); assay: MIC, broth microdilution (CLSI), CAMHB; settings: Klebsiella pneumoniae
Experimental: as §1, §2, §3

[19] = test system: K. pneumoniae NRZ-00535 (VIM-1); assay: MIC, broth microdilution (CLSI), CAMHB; settings: Klebsiella pneumoniae
Experimental: as §1, §2, §3

[20] = test system: P. aeruginosa ATCC 10145; assay: MIC, broth microdilution (CLSI), CAMHB; settings: Pseudomonas aeruginosa, ATCC10145
Experimental: as §1, §2, §3

[21] = test system: P. aeruginosa NRZ-00425 (VIM-1); assay: MIC, broth microdilution (CLSI), CAMHB; settings: Pseudomonas aeruginosa
Experimental: as §1, §2, §3

[22] = test system: P. mirabilis ATCC 9240; assay: MIC, broth microdilution (CLSI), CAMHB; settings: Proteus mirabilis, ATCC9240
Experimental: as §1, §2, §3

[23] = test system: P. mirabilis NRZ-00185 (AmpC, type CMY-2); assay: MIC, broth microdilution (CLSI), CAMHB; settings: Proteus mirabilis
Experimental: as §1, §2, §3

[24] = test system: S. aureus ATCC 29213; assay: MIC, broth microdilution (CLSI), CAMHB; settings: Staphylococcus aureus, ATCC29213
Experimental: as §1, §2, §3

[25] = test system: S. aureus ATCC 33593 (MRSA); assay: MIC, broth microdilution (CLSI), CAMHB; settings: Staphylococcus aureus
Experimental: as §1, §2, §3

[26] = test system: S. aureus NRS-119 (MRSA, linezolid- and quinolone-resistant); assay: MIC, broth microdilution (CLSI), CAMHB; settings: Staphylococcus aureus
Experimental: as §1, §2, §3

[27] = test system: S. aureus Visa Mu 50 (MRSA, vancomycin intermediate susceptible); assay: MIC, broth microdilution (CLSI), CAMHB; settings: Staphylococcus aureus
Experimental: as §1, §2, §3

[28] = test system: S. pneumoniae ATCC 33400; assay: MIC, broth microdilution (CLSI), CAMHB; settings: Streptococcus pneumoniae, ATCC33400
Experimental: as §1, §2, §3

[29] = test system: S. pneumoniae BAY 19397 (penicillin-, macrolide-, quinolone-resistant); assay: MIC, broth microdilution (CLSI), CAMHB; settings: Streptococcus pneumoniae
Experimental: as §1, §2, §3

[30] = test system: S. aureus DSM 11823, clone 16 (MSSA, quinolone-resistant); assay: microbe, parasite or virus in culture; settings: Staphylococcus aureus
Experimental: as §1, §2, §3

[31] = test system: Gram-negative test strains (Enterobacteriaceae, non-fermenters); assay: MIC testing, statements on the Gram-negative strain panel
From the text: as §1

[32] = test system: Gram-positive strains tested; assay: MIC testing, statements on the Gram-positive strain panel; settings: read-out: MIC (inhibitory concentration)
From the text: as §1

Q: How did the MIC ([1]; monosubstance, Ec ATCC25922, read-out: MIC) turn out when C[C@@H]1O[C@@H]1P(=O)(O)O [fosfomycin] was run?
A: 2 µg/mL (≈ 14.5 µM)

Q: What about the MIC ([2]; monosubstance, Ec GNS2601, read-out: MIC) of the same compound?
A: 64 µg/mL (≈ 464 µM)

Q: What about the MIC ([3]; monosubstance, Ec NRZ00302, read-out: MIC) of the same compound?
A: 64 µg/mL (≈ 464 µM)

Q: And the MIC ([4]; monosubstance, Ec NRZ00401, read-out: MIC)?
A: 2 µg/mL (≈ 14.5 µM)

Q: And the “growth- and kill rates k ('+' = growth, unmarked = kill rate)” value (“growth- and kill rates k” below) ([5]; single agent at 1x its MIC)?
A: +0.68 h^−1

Q: And the “growth- and kill rates k” value ([5]; single agent at 2x its MIC)?
A: +0.72 h^−1

Q: What about the “Viable counts at 8 h of exposure” value ([5]; single agent at 1x its MIC) of the same compound?
A: 8.95 log10 CFU/mL

Q: And the “Viable counts at 8 h of exposure” value ([5]; single agent at 2x its MIC)?
A: 8.59 log10 CFU/mL

Q: And the “growth- and kill rates k” value ([6]; single agent at 1x its MIC)?
A: +0.40 h^−1

Q: And the “growth- and kill rates k” value ([6]; single agent at 2x its MIC)?
A: +0.32 h^−1

Q: And the “Viable counts at 8 h of exposure” value ([6]; single agent at 1x its MIC)?
A: 7.95 log10 CFU/mL

Q: And the “Viable counts at 8 h of exposure” value ([6]; single agent at 2x its MIC)?
A: 6.65 log10 CFU/mL

Q: And the “growth- and kill rates k” value ([7]; single agent at 1x its MIC)?
A: 1.67 h⁻¹

Q: And the “growth- and kill rates k” value ([7]; single agent at 2x its MIC)?
A: 2.09 h⁻¹

Q: What about the “Viable counts at 8 h of exposure” value ([7]; single agent at 1x its MIC) of the same compound?
A: 2.78 log10 CFU/mL

Q: What about the “Viable counts at 8 h of exposure” value ([7]; single agent at 2x its MIC) of the same compound?
A: 1.30 log10 CFU/mL

Q: And the “growth- and kill rates k” value ([8]; single agent at 1x its MIC)?
A: 1.21 h⁻¹

Q: And the “growth- and kill rates k” value ([8]; single agent at 2x its MIC)?
A: 1.85 h⁻¹

Q: And the “Viable counts at 8 h of exposure” value ([8]; single agent at 1x its MIC)?
A: 5.08 log10 CFU/mL

Q: What about the “Viable counts at 8 h of exposure” value ([8]; single agent at 2x its MIC) of the same compound?
A: 3.45 log10 CFU/mL

Q: What about the “type of activity in time-kill” value ([9]; strains ATCC 25922, NRZ-00401) of the same compound?
A: bacteriostatically

Q: What about the “type of activity in time-kill” value ([9]; strains NRZ-00302 and GNS-2601) of the same compound?
A: bactericidal

Q: With CN(C)c1cc(NC(=O)CNC(C)(C)C)c(O)c2c1C[C@H]1C[C@H]3[C@H](N(C)C)C(O)=C(C(N)=O)C(=O)[C@@]3(O)C(O)=C1C2=O [tigecycline] as the compound, how does the MIC [10] read?
A: 2 µg/mL (≈ 3.41 µM)

Q: What about the MIC [11] of the same compound?
A: 2 µg/mL (≈ 3.41 µM)

Q: And the MIC ([1]; ATCC25922)?
A: 0.5 µg/mL (≈ 0.854 µM)

Q: What about the MIC [2] of the same compound?
A: 4 µg/mL (≈ 6.83 µM)

Q: What about the MIC [3] of the same compound?
A: 2 µg/mL (≈ 3.41 µM)

Q: And the MIC [4]?
A: 2 µg/mL (≈ 3.41 µM)

Q: And the MIC [12]?
A: 0.25 µg/mL (≈ 0.427 µM)

Q: What about the MIC [13] of the same compound?
A: 0.25 µg/mL (≈ 0.427 µM)

Q: What about the MIC [14] of the same compound?
A: 0.25 µg/mL (≈ 0.427 µM)

Q: And the MIC [15]?
A: 0.25 µg/mL (≈ 0.427 µM)

Q: And the MIC [16]?
A: 2 µg/mL (≈ 3.41 µM)

Q: And the MIC [17]?
A: 2 µg/mL (≈ 3.41 µM)

Q: And the MIC [18]?
A: 4 µg/mL (≈ 6.83 µM)

Q: And the MIC [19]?
A: 2 µg/mL (≈ 3.41 µM)

Q: What about the MIC [20] of the same compound?
A: 16 µg/mL (≈ 27.3 µM)

Q: What about the MIC [21] of the same compound?
A: 32 µg/mL (≈ 54.6 µM)

Q: And the MIC [22]?
A: 8 µg/mL (≈ 13.7 µM)

Q: What about the MIC [23] of the same compound?
A: 8 µg/mL (≈ 13.7 µM)

Q: And the MIC [24]?
A: 0.25 µg/mL (≈ 0.427 µM)

Q: And the MIC [25]?
A: 0.25 µg/mL (≈ 0.427 µM)

Q: What about the MIC [26] of the same compound?
A: 0.25 µg/mL (≈ 0.427 µM)

Q: What about the MIC [27] of the same compound?
A: 0.5 µg/mL (≈ 0.854 µM)

Q: What about the MIC [28] of the same compound?
A: 0.0075 µg/mL (≈ 0.0128 µM)

Q: What about the MIC [29] of the same compound?
A: 0.0075 µg/mL (≈ 0.0128 µM)

Q: What about the MIC [30] of the same compound?
A: 0.125 µg/mL (≈ 0.213 µM)

Q: And the MIC [31]?
A: > 2 µg/mL

Q: And the MIC [32]?
A: < 0.5 µg/mL
